What was measured:
Assay type in all cases: physicochemical
[1] = lambda max (Vis) of photochromic test square polymerizates, UV-Visible spectrophotometer; details: activated (colored) form in polymer test square (BPA 2EO DMA / poly(ethylene glycol) 600 dimethacrylate), 1.5×10^-3 molal
Description: (§1) Testing was done with the photochromic compounds prepared in Examples 1-14 in the following manner. A quantity of each photochromic compound, except Compounds 13A and 14, calculated to yield a 1.5×10^-3 molal solution was added to a flask containing 50 grams of a monomer blend of 4 parts ethoxylated bisphenol A dimethacrylate (BPA 2EO DMA), 1 part poly(ethylene glycol) 600 dimethacrylate, and 0.033 weight percent 2,2'-azobis(2-methyl propionitrile) (AIBN). Each photochromic compound was dissolved into the monomer blend by stirring and gentle heating. After a clear solution was obtained, it was poured into a flat sheet mold having the interior dimensions of 2.2 mm×6 inches (15.24 cm)×6 inches (15.24 cm). The mold was sealed and placed in a horizontal air flow, programmable oven programmed to increase the temperature from 40° C. to 95° C. over a 5 hour interval, hold the temperature at 95° C. for 3 hours, lower it to 60° C. over a 2 hour interval and then hold at 60° C. for 16 hours. After the mold was opened, the polymer sheet was cut using a diamond blade saw into 2 inch (5.1 centimeters) test squares.
The ΔOD/min, which represents the sensitivity of the photochromic compound's response to UV light, was measured over the first five (5) seconds of UV exposure, then expressed on a per minute basis. The saturation optical density (ΔOD@ Saturation) was taken under identical conditions as the ΔOD/min, except UV exposure was continued for 15 minutes. The lambda max (Vis) is the wavelength in nanometers (nm) in the visible spectrum at which the maximum absorption of the activated (colored) form of the photochromic compound in a test square occurs. The lambda max (Vis) wavelength was determined by testing the photochromic test square polymerizates of Part A in a Varian Cary 3 UV-Visible spectrophotometer. The Bleach Rate (T 1/2) is the time interval in seconds for the absorbance of the activated form of the photochromic compound in the test squares to reach one half the highest absorbance at room temperature (72° F., 22.2° C.) after removal of the source of activating light.

[2] = photochromic response of test squares on an optical bench (sensitivity, saturation, bleach rate); details: for ΔOD @ Saturation: UV exposure continued for 15 minutes; for ΔOD @ Saturation / Sensitivity ΔOD/min: 72° F. (22.2° C.); for Sensitivity ΔOD/min: first five (5) seconds of UV exposure, expressed per minute; for Bleach Rate T 1/2: time to one half the highest absorbance at room temperature (72° F., 22.2° C.) after removal of activating light
Description: as §1
The photochromic test squares prepared in Part A were tested for photochromic response on an optical bench. Prior to testing on the optical bench, the photochromic test squares were exposed to 365 nanometer ultraviolet light for about 15 minutes to activate the photochromic compounds and then placed in a 76° C. oven for about 15 minutes to bleach or inactivate the photochromic compounds. The test squares were then cooled to room temperature, exposed to fluorescent room lighting for at least 2 hours and then kept covered for at least 2 hours prior to testing on an optical bench maintained at 72° F. (22.2° C.). The bench was fitted with a 150 watt Xenon arc lamp, a remote controlled shutter, a copper sulfate bath acting as a heat sink for the arc lamp, a Schott WG-320 nm cut-off filter which removes short wavelength radiation; neutral density filter(s) and a sample holder in which the square to be tested was inserted. The power output of the optical bench, i.e., the dosage of light that the sample lens would be exposed to, was calibrated with a photochromic test square used as a reference standard. […] The UV-A detector was placed into the sample holder and the light output was measured. Adjustments to the power output were made by increasing or decreasing the lamp wattage or by adding or removing neutral density filters in the light path.
A monitoring, collimated beam of light from a tungsten lamp was passed through the square at a small angle (approximately 30°) normal to the square. After passing through the square, the light from the tungsten lamp was directed to a detector through Spectral Energy Corp. GM-200 monochromator set at the previously determined visible lambda max of the photochromic compound being measured. The output signals from the detector were processed by a radiometer.
Change in optical density (ΔOD) was determined by inserting a test square in the bleached state into the sample holder, adjusting the transmittance scale to 100%, opening the shutter from the Xenon lamp to provide ultraviolet radiation to change the test square from the bleached state to an activated (i.e., darkened) state, measuring the transmittance in the activated state, and calculating the change in optical density according to the formula: ΔOD=log(100/% Ta), where % Ta is the percent transmittance in the activated state and the logarithm is to the base 10.
The ΔOD/min, which represents the sensitivity of the photochromic compound's response to UV light, was measured over the first five (5) seconds of UV exposure, then expressed on a per minute basis. The saturation optical density (ΔOD@ Saturation) was taken under identical conditions as the ΔOD/min, except UV exposure was continued for 15 minutes. […]

[3] = lambda max (Vis) of compound in solution, UV/Visible spectrophotometer; details: solution in diethylene glycol dimethyl ether, approximately 0.5 milligram per milliliter
Description: The compound of Example 13 identified as 13A and the compound of Example 14 were dissolved in diethylene glycol dimethyl ether. The concentration of the resulting solution was approximately 0.5 milligram per milliliter. Each solution was tested in a UV/Visible Spectrophotometer to determine the lambda max (Vis).

| lambda max (Vis) [1] [nanometers] | ΔOD @ Saturation [2] | Sensitivity ΔOD/min [2] | Bleach Rate T 1/2 [2] [min] | lambda max (Vis) [3] [nanometers] | SMILES |
| --- | --- | --- | --- | --- | --- |
| 510 | 0.67 | 0.74 ΔOD/min | 0.85 | – | COc1ccc(C2(c3ccc(OC)cc3)C=Cc3c4c(c5ccccc5c3O2)OCOC4=O)cc1 [Example 2, 7,7-di(4-methoxyphenyl)-4-oxo-4H-7H-[1,3]dioxino[5',4':3,4]naphtho[1,2-b]pyran] |
| 475 | 1.72 | 0.64 ΔOD/min | 4 | – | CC(C)CC1OC(=O)c2c3c(c4ccccc4c2O1)OC(c1ccccc1)(c1ccccc1)C=C3 (centres unmarked) [Example 6, 7,7-diphenyl-2-(2-methylpropyl)-4-oxo-4H-7H-[1,3]dioxino[5',4':3,4]naphtho[1,2-b]pyran] |
| 475 | 1.58 | 0.63 ΔOD/min | 4.18 | – | CC(c1ccccc1)C1OC(=O)c2c3c(c4ccccc4c2O1)OC(c1ccccc1)(c1ccccc1)C=C3 (centres unmarked) [Example 8, 7,7-diphenyl-2-(1-phenylethyl)-4-oxo-4H-7H-[1,3]dioxino[5',4':3,4]naphtho[1,2-b]pyran] |
| 469 | 0.40 | 0.41 ΔOD/min | 0.85 | – | Cn1c(=O)oc2c(c3c(c4ccccc42)OC(c2ccccc2)(c2ccccc2)C=C3)c1=O [Example 9, 3-methyl-7,7-diphenyl-2,4-dioxo-2,3,4,7-tetrahydro[1,3]oxazino[5',6':3,4]naphtho[1,2-b]pyran] |
| – | – | – | – | 460 | CC1(C)Cc2c(c3c(c4ccccc24)OC(c2ccccc2)(c2ccccc2)C=C3)C(=O)O1 [Example 14] |

Further lines, the compound ahead of its results:

| SMILES | lambda max (Vis) [1] [nanometers] | ΔOD @ Saturation [2] | Sensitivity ΔOD/min [2] | Bleach Rate T 1/2 [2] [min] | lambda max (Vis) [3] [nanometers] |
| --- | --- | --- | --- | --- | --- |
| O=C1OCOc2c1c1c(c3ccccc23)OC(c2ccccc2)(c2ccccc2)C=C1 [Example 1, 7,7-diphenyl-4-oxo-4H-7H-[1,3]dioxino[5'4':3,4]naphtho[1,2-b]pyran] | 472 | 1.89 | 0.76 ΔOD/min | 3.67 | – |
| CCCCCC1OC(=O)c2c3c(c4ccccc4c2O1)OC(c1ccccc1)(c1ccc(OC)cc1)C=C3 (centres unmarked) [Example 3, 7-(4-methoxyphenyl)-7-phenyl-2-pentyl-4-oxo-4H-7H-[1,3]dioxino[5',4':3,4]naphtho[1,2-b]pyran] | 496 | 1.28 | 0.75 ΔOD/min | 1.95 | – |
| CCC1OC(=O)c2c3c(c4ccccc4c2O1)OC(c1ccccc1)(c1ccccc1)C=C3 (centres unmarked) [Example 4, 7,7-diphenyl-2-ethyl-4-oxo-4H-7H-[1,3]dioxino[5',4':3,4]naphtho[1,2-b]pyran] | 474 | 1.71 | 0.67 ΔOD/min | 4.13 | – |
| CCCCCC1OC(=O)c2c3c(c4ccccc4c2O1)OC(c1ccccc1)(c1ccccc1)C=C3 (centres unmarked) [Example 5, 7,7-diphenyl-2-pentyl-4-oxo-4H-7H-[1,3]dioxino[5',4':3,4]naphtho[1,2-b]pyran] | 478 | 1.74 | 0.67 ΔOD/min | 4.23 | – |
| O=C1OC(c2ccccc2)Oc2c1c1c(c3ccccc23)OC(c2ccccc2)(c2ccccc2)C=C1 (centres unmarked) [Example 7, 2,7,7-triphenyl-4-oxo-4H-7H-[1,3]dioxino[5',4':3,4]naphtho[1,2-b]pyran] | 476 | 1.46 | 0.60 ΔOD/min | 4.13 | – |
| CCOC(=O)CCn1c(=O)oc2c(c3c(c4ccccc42)OC(c2ccccc2)(c2ccccc2)C=C3)c1=O [Example 10, 3-(2-ethoxycarbonylethyl)-7,7-diphenyl-2,4-dioxo-2,3,4,7-tetrahydro[1,3]oxazino[5',6':3,4]naphtho[1,2-b]pyran] | 468 | 0.38 | 0.44 ΔOD/min | 0.7 | – |
| CCCCCCn1c(=O)oc2c(c3c(c4ccccc42)OC(c2ccccc2)(c2ccccc2)C=C3)c1=O [Example 11, 3-hexyl-7,7-diphenyl-2,4-dioxo-2,3,4,7-tetrahydro[1,3]oxazino[5',6':3,4]naphtho[1,2-b]pyran] | 471 | 0.41 | 0.46 ΔOD/min | 0.883 | – |
| C=C(C)C(=O)OCCn1c(=O)oc2c(c3c(c4ccccc42)OC(c2ccccc2)(c2ccccc2)C=C3)c1=O [Example 12, 3-(2-methacryloyloxyethyl)-7,7-diphenyl-2,4-dioxo-2,3,4,7-tetrahydro[1,3]oxazino[5',6':3,4]naphtho[1,2-b]pyran] | 467 | 0.32 | 0.26 ΔOD/min | 2.33 | – |
| O=C1OC(c2ccccc2)(c2ccccc2)Nc2c1c1c(c3ccccc23)OC(c2ccccc2)(c2ccccc2)C=C1 [Example 13A, 2,2,7,7-tetraphenyl-4-oxo-2,3,4,7-tetrahydro-1H-[1,3]oxazino[5',4':3,4]naphtho[1,2-b]pyran] | – | – | – | – | 471 |
